Measured values as given in patent US11434242B2, “Dopamine-b-hydroxylase inhibitors” (BIAL-PORTELA & Cª, S.A., priority 2017, dated 2022).
Where a name gives a salt, the structure may show the parent alone.

How the values were obtained:
[1] = molecular target: T1, DβH (Homo sapiens, UniProt P09172); test: DβH inhibition assay in SK-N-SH cellular homogenates (tyramine to octopamine); format: biochemical; details: SK-N-SH cell homogenate; for SKNSH (1 μM), activity in % of control: inhibitor 1 μM; for SKNSH (0.1 μM), activity in % of control: inhibitor 0.1 μM
T1 construct: cellular homogenate (75 μg total protein); host or cells: SK-N-SH cells (homogenate)
T1 sequence (P09172 1-617): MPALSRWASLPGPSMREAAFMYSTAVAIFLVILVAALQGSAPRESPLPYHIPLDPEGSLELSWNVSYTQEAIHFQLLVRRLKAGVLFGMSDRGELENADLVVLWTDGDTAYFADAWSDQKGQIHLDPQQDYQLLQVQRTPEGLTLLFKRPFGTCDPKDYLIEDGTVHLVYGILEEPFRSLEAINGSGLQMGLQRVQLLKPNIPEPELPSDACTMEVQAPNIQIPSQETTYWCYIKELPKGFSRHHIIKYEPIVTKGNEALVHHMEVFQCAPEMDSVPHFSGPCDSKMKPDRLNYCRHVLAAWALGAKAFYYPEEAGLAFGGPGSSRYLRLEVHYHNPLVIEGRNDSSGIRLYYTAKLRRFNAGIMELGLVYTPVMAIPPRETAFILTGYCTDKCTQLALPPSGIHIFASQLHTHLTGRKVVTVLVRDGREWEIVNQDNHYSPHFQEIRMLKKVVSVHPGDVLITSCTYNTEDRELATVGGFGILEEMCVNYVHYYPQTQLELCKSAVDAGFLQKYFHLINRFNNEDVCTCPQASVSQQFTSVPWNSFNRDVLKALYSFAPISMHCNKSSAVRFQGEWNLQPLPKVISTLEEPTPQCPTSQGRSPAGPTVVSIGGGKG

[2] = molecular target: T2, Dopamine beta hydroxylase (Homo sapiens, UniProt P09172); test: Dopamine beta hydroxylase activity in human plasma; format: biochemical; details: for Plasma (0.01 μM), activity in % of control: inhibitor 0.01 μM; for Plasma (0.1 μM), activity in % of control: inhibitor 0.1 μM
T2 construct: 125 μl of plasma; tissue Instituto Português do Sangue Transplantação; host or cells: human plasma from healthy donors
T2 sequence (P09172 40-617 limits assumed): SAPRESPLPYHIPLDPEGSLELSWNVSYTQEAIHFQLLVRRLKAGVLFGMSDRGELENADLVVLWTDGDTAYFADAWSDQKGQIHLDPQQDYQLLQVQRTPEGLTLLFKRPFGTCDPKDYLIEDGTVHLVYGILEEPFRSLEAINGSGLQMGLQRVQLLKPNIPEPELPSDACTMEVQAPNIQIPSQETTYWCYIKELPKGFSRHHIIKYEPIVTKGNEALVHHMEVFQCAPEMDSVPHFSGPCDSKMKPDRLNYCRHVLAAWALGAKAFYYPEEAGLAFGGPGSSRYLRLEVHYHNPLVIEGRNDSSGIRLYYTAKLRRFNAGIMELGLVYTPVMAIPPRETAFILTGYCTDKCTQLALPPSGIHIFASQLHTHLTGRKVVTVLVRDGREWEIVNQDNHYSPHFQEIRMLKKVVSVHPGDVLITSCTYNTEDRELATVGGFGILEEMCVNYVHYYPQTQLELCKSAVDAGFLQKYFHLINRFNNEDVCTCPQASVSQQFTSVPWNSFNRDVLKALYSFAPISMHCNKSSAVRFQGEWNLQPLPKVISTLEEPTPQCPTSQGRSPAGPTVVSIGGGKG
Procedure, shortened: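 Octopamine production from tyramine over 45 min at 37° C, measured photometrically at 330 nm after SCX extraction and periodate oxidation against an octopamine standard curve, indicates plasma DβH activity. Compounds tested at final 10, 100 and 1000 nM in human plasma, pH 5.0 cofactor buffer, 10 min preincubation; results as % of control.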

Row | SMILES | SKNSH (1 μM), activity in % of control [1] | also measured
1 | CCOC(=O)Cc1[nH]c(=S)n2c1C[C@@H](c1cc(F)cc(F)c1)C2 [Example 1, (S)-ethyl 2-(6-(3,5-difluorophenyl)-3-thioxo-3,5,6,7-tetrahydro-2H-pyrrolo[1,2-c]imidazol-1-yl)acetate] | 37.9 % of control | 
2 | CCOC(=O)Cc1[nH]c(=S)n2c1C[C@@H](c1cc(F)ccc1F)C2 [Example 2, (S)-ethyl 2-(6-(2,5-difluorophenyl)-3-thioxo-3,5,6,7-tetrahydro-2H-pyrrolo[1,2-c]imidazol-1-yl)acetate] | 49.3 % of control | 
3 | O=C(O)Cc1[nH]c(=S)n2c1C[C@@H](c1cc(F)ccc1F)C2 [Example 3, (S)-2-(6-(2,5-difluorophenyl)-3-thioxo-3,5,6,7-tetrahydro-2H-pyrrolo[1,2-c]imidazol-1-yl)acetic Acid] | 35.8 % of control | 
4 | COC(=O)Cc1[nH]c(=S)n2c1[C@@H]1C[C@]1(c1cc(F)ccc1F)C2 [Example 4, Methyl 2-((5aS,6aR)-5a-(2,5-difluorophenyl)-3-thioxo-2,3,5,5a,6,6a-hexahydrocyclopropa[3,4]pyrrolo[1,2-c]imidazol-1-yl)acetate] | 20.3 % of control | 
5 | COC(=O)Cc1[nH]c(=S)n2c1[C@@H]1C[C@]1(c1cc(F)cc(F)c1)C2 [Example 5, Methyl 2-((5aS,6aR)-5a-(3,5-difluorophenyl)-3-thioxo-2,3,5,5a,6,6a-hexahydrocyclopropa[3,4]pyrrolo[1,2-c]imidazol-1-yl)acetate] | 19.9 % of control | 
6 | O=C(O)Cc1[nH]c(=S)n2c1[C@@H]1C[C@]1(c1cc(F)ccc1F)C2 [Example 6, 2-((5aS,6aR)-5a-(2,5-difluorophenyl)-3-thioxo-2,3,5,5a,6,6a-hexahydrocyclopropa[3,4]pyrrolo[1,2-c]imidazol-1-yl)acetic Acid] | 3.7 % of control | SKNSH (0.1 μM), activity in % of control [1]: 36.9 % of control
7 | O=C(O)Cc1[nH]c(=S)n2c1[C@@H]1C[C@]1(c1cc(F)cc(F)c1)C2 [Example 7, 2-((5aS,6aR)-5a-(3,5-difluorophenyl)-3-thioxo-2,3,5,5a,6,6a-hexahydrocyclopropa[3,4]pyrrolo[1,2-c]imidazol-1-yl)acetic Acid] | 3.6 % of control | SKNSH (0.1 μM), activity in % of control [1]: 45.6 % of control
8 | OCCc1[nH]c(=S)n2c1[C@@H]1C[C@]1(c1cc(F)cc(F)c1)C2 [Example 8, (5aS,6aR)-5a-(3,5-difluorophenyl)-1-(2-hydroxyethyl)-5,5a,6,6a-tetrahydrocyclopropa[3,4]pyrrolo[1,2-c]imidazole-3(2H)-thione] | 15.3 % of control | 
9 | O=C(Cc1[nH]c(=S)n2c1C[C@@H](c1cc(F)cc(F)c1)C2)N1CCOCC1 [Example 9, (S)-2-(6-(3,5-difluorophenyl)-3-thioxo-3,5,6,7-tetrahydro-2H-pyrrolo[1,2-c]imidazol-1-yl)-1-morpholinoethanone] | 54.9 % of control | 
10 | O=C(O)Cc1[nH]c(=S)n2c1C[C@@H](c1c(F)c(F)cc(F)c1F)C2 [Example 10, (S)-2-(6-(2,3,5,6-tetrafluorophenyl)-3-thioxo-3,5,6,7-tetrahydro-2H-pyrrolo[1,2-c]imidazol-1-yl)acetic Acid] | 2.1 % of control | SKNSH (0.1 μM), activity in % of control [1]: 46.4 % of control
11 | O=C(O)Cc1[nH]c(=S)n2c1C[C@@H](c1cc(F)cc(F)c1)C2 [Example 11, (S)-2-(6-(3,5-difluorophenyl)-3-thioxo-3,5,6,7-tetrahydro-2H-pyrrolo[1,2-c]imidazol-1-yl)acetic Acid] | 28.5 % of control | 
12 | N#CNC(=O)Cc1[nH]c(=S)n2c1C[C@@H](c1c(F)c(F)cc(F)c1F)C2 [Example 19, (S)—N-cyano-2-(6-(2,3,5,6-tetrafluorophenyl)-3-thioxo-3,5,6,7-tetrahydro-2H-pyrrolo[1,2-c]imidazol-1-yl)acetamide] | 16.4 % of control | 
13 | NC(=O)Cc1[nH]c(=S)n2c1[C@@H]1C[C@]1(c1cc(F)cc(F)c1)C2 [Example 33, 2-((5aS,6aR)-5a-(3,5-difluorophenyl)-3-thioxo-2,3,5,5a,6,6a-hexahydrocyclopropa[3,4]pyrrolo[1,2-c]imidazol-1-yl)acetamide] | 33.4 % of control | 
14 | NCCc1[nH]c(=S)n2c1[C@@H]1C[C@]1(c1cc(F)cc(F)c1)C2 [Example 35, (5aS,6aR)-1-(2-aminoethyl)-5a-(3,5-difluorophenyl)-5,5a,6,6a-tetrahydrocyclopropa[3,4]pyrrolo[1,2-c]imidazole-3(2H)-thione Hydrochloride] | 45.9 % of control | 
15 | N#CCc1[nH]c(=S)n2c1[C@@H]1C[C@]1(c1cc(F)ccc1F)C2 [Example 36, 2-((5aS,6aR)-5a-(2,5-difluorophenyl)-3-thioxo-2,3,5,5a,6,6a-hexahydrocyclopropa[3,4]pyrrolo[1,2-c]imidazol-1-yl)acetonitrile] | 50.1 % of control | 
16 | CN(Cc1ccccc1)C(=O)Cc1[nH]c(=S)n2c1[C@@H]1C[C@]1(c1cc(F)ccc1F)C2 [Example 37, N-benzyl-2-((5aS,6aR)-5a-(2,5-difluorophenyl)-3-thioxo-2,3,5,5a,6,6a-hexahydrocyclopropa[3,4]pyrrolo[1,2-c]imidazol-1-yl)-N-methylacetamide] | 15.7 % of control | 
17 | CCCCN(C)C(=O)Cc1[nH]c(=S)n2c1[C@@H]1C[C@]1(c1cc(F)ccc1F)C2 [Example 38, N-butyl-2-((5aS,6aR)-5a-(2,5-difluorophenyl)-3-thioxo-2,3,5,5a,6,6a-hexahydrocyclopropa[3,4]pyrrolo[1,2-c]imidazol-1-yl)-N-methylacetamide] | 20.9 % of control | 
18 | CCCCN(C)CCc1[nH]c(=S)n2c1[C@@H]1C[C@]1(c1cc(F)ccc1F)C2.Cl [Example 39, (5aS,6aR)-1-(2-(butyl(methyl)amino)ethyl)-5a-(2,5-difluorophenyl)-5,5a,6,6a-tetrahydrocyclopropa[3,4]pyrrolo[1,2-c]imidazole-3(2H)-thione Hydrochloride] | 29.8 % of control | 
19 | CN(CCc1[nH]c(=S)n2c1[C@@H]1C[C@]1(c1cc(F)ccc1F)C2)Cc1ccccc1 [Example 40, (5aS,6aR)-1-(2-(benzyl(methyl)amino)ethyl)-5a-(2,5-difluorophenyl)-5,5a,6,6a-tetrahydrocyclopropa[3,4]pyrrolo[1,2-c]imidazole-3(2H)-thione] | 29.3 % of control | 
20 | Cl.Cn1c(CCNCC2CCOCC2)c2n(c1=S)C[C@@H](c1c(F)ccc(F)c1F)C2 [Example 477, (R)-2-methyl-1-(2-(((tetrahydro-2H-pyran-4-yl)methyl)amino)ethyl)-6-(2,3,6-trifluorophenyl)-2,5,6,7-tetrahydro-3H-pyrrolo[1,2-c]imidazole-3-thione hydrochloride] |  | Plasma (0.01 μM), activity in % of control [2]: 84.6 % of control; Plasma (0.1 μM), activity in % of control [2]: 59.4 % of control
21 | Fc1ccc(F)c([C@H]2Cc3c(CCCN4CCCC4)[nH]c(=S)n3C2)c1F [Example 478, (R)-1-(3-(pyrrolidin-1-yl)propyl)-6-(2,3,6-trifluorophenyl)-2,5,6,7-tetrahydro-3H-pyrrolo[1,2-c]imidazole-3-thione hydrofluoride] |  | Plasma (0.01 μM), activity in % of control [2]: 46.7 % of control; Plasma (0.1 μM), activity in % of control [2]: 5.1 % of control
